Experiments:
BBZDR/Wor rats [1] = test: Environmental induction of diabetes in BBZDR/Wor rats (during initial development of the strain); type: in vivo, rat
Experimental: (§1) During the initial development of the BBZDR/Wor strain, we performed several experiments to determine whether BBZDR/Wor animals are susceptible to other environmental triggers of diabetes. […] Lean and obese BBZDR/Wor rats were treated with either the TLR3 ligand, poly I:C, or poly I:C and KRV and the incidence of diabetes was determined. […] In contrast, 35-64% of animals treated with poly I:C+KRV became diabetic. We consistently observed a higher incidence of diabetes among lean BBZDR/Wor animals as compared to obese rats. More experiments will need to be performed to determine whether these differences are statistically significant. We recently revisited the poly I:C experiments in the now, fully-inbred (>40 generations) BBZDR/Wor rat line. […] In contrast to our previous results, we observed that 40% of the lean animals and 50% of the obese females developed hyperglycemia.

BBZDR/Wor rats [2] = test: Preliminary poly I:C experiment in fully-inbred BBZDR/Wor rat line, onset of diabetes; type: in vivo; conditions: fully-inbred (>40 generations) line, 5 μg/gm body weight, 3× a week
Experimental: as §1

BBDR/Wor rats = conditions: cited from earlier work
[3] = tested on: dorsal root explants and cultured neurons; conditions: application to dorsal root explants and cultured neurons; cited from earlier work

polyinosine:polycytidylic acid [Poly I:C]
% Diabetic With Treatment (BBZDR/Wor rats [1]; Lean BBZDR/Wor rats): 0%
incidence of diabetes (BBZDR/Wor rats [1]; Lean and obese BBZDR/Wor rats together): no animals treated with poly I:C alone developed diabetes
% Diabetic With Treatment (BBZDR/Wor rats [1]; Obese BBZDR/Wor rats): 0%
animals that developed hyperglycemia (BBZDR/Wor rats [2]; lean female animals): 40%
animals that developed hyperglycemia (BBZDR/Wor rats [2]; obese females): 50%
induction of hyperglycemia (BBDR/Wor rats; low doses, poly I:C alone): do not induce hyperglycemia
incidence of diabetes (BBDR/Wor rats; poly I:C given just prior to KRV infection): ~100%
effect on axonal outgrowth [3]: inhibits axonal outgrowth

Source: US20060179499A1, “Non-human animal models for diabetic complications and their uses” (Biomedical Research Models, Inc., priority 2004, published 2006)
